US6639078B1, “Assays for ligands for nuclear receptors” (SmithKline Beecham Corporation, priority 1998, dated 2003)
Read-outs that look alike come from different tables or passages of the source.

Experiments:
human FXR LBD [1] = target: T1, human FXR LBD (Homo sapiens, UniProt Q96RI1); experiment: FRET ligand-sensing assay: SRC1 peptide binding to FXR LBD; details: 100 μM compound (FIG. 3A/4a)
T1 sequence (Q96RI1 222-472 isoform Q96RI1-2): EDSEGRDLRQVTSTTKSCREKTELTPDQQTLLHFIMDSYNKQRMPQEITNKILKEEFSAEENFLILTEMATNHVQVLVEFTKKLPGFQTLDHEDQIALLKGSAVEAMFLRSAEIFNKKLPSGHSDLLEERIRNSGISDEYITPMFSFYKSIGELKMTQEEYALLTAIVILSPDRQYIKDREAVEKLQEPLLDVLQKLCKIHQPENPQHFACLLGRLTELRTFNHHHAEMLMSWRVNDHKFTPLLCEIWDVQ

full-length human FXR = target: T2, full-length human FXR (Homo sapiens, UniProt Q96RI1); experiment: CAT reporter assay in CV-1 cells transfected with FXR, human RXRα and FXREhsp27-tk-CAT; details: 100 μM bile acid or farnesol, 10 μM steroid or TTNPB
T2 sequence (Q96RI1 1-472 isoform Q96RI1-2): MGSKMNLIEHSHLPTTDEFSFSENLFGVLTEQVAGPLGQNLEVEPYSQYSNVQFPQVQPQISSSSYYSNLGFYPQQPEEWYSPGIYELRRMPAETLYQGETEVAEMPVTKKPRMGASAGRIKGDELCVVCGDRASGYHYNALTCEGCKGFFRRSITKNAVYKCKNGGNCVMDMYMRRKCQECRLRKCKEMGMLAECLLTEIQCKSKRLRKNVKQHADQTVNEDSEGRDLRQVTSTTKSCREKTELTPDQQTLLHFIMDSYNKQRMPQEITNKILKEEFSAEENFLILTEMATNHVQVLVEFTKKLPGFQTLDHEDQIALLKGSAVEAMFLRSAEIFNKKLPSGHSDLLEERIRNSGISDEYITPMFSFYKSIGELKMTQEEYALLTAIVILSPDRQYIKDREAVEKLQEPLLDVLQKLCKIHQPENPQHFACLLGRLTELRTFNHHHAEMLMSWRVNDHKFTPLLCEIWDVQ
T2 sequence (P19793 1-462 partner): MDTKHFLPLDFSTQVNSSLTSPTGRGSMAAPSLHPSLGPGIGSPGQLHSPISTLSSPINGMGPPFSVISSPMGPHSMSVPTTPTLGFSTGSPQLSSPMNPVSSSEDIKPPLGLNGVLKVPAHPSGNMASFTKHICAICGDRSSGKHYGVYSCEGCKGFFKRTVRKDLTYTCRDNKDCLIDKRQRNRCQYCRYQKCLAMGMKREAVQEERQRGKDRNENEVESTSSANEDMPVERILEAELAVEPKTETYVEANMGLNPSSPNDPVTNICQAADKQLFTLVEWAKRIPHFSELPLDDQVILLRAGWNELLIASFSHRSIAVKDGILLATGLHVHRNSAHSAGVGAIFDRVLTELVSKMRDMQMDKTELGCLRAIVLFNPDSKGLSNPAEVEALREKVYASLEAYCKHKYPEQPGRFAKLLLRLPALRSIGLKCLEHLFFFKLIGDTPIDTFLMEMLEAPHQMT
Text: CV-1 cells were transiently transfected with an expression plasmid encoding the human FXR and a reporter construct containing the hsp27-EcRE, a response element that is known to be activated by the FXR/RXR heterodimer.

human FXR LBD [2] = target: T1, human FXR LBD; experiment: FRET ligand-sensing assay in the presence of 50 μM CDCA (competition with CDCA for FXR binding)
Text: Data are expressed as the means ± SD derived from three independent experiments.
Data were collected using a Wallac Victor™ fluorescence reader in a time-resolved mode.

| Compound | effect on interaction between FXR LBD and SRC1 peptide (human FXR LBD [1]) | activation of full-length human FXR (full-length human FXR) | also measured |
| --- | --- | --- | --- |
| C[C@H](CCC(=O)O)[C@H]1CC[C@H]2[C@@H]3[C@H](O)C[C@@H]4C[C@H](O)CC[C@]4(C)[C@H]3C[C@H](O)[C@]12C [CA, cholic acid] | no effect | inactive | – |
| C[C@H](CCC(=O)O)[C@H]1CC[C@H]2[C@@H]3CC[C@@H]4C[C@H](O)CC[C@]4(C)[C@H]3C[C@H](O)[C@]12C [DCA, deoxycholic acid] | – | – | IC50 (human FXR LBD [2]): 100 µM |
| C/C(=C\c1ccc(C(=O)O)cc1)c1ccc2c(c1)C(C)(C)CCC2(C)C [TTNPB] | did not promote interactions | activate FXR | effect on CDCA-FXR-SRC1 complex (fluorescence signal) (human FXR LBD [2]; in the presence of 50 μM CDCA): disrupted the CDCA-FXR-SRC1 complex in a dose-dependent fashion |
| C[C@H](CCC(=O)O)[C@H]1CC[C@H]2[C@@H]3[C@H](O)[C@@H](O)[C@@H]4C[C@H](O)CC[C@]4(C)[C@H]3CC[C@]12C [α-muricholic acid] | – | no activation | – |
| C[C@H](CCC(=O)O)[C@H]1CC[C@H]2[C@@H]3[C@@H](O)[C@@H](O)[C@@H]4C[C@H](O)CC[C@]4(C)[C@H]3CC[C@]12C [β-muricholic acid] | – | no activation | – |
| muricholic acid [MCA] | – | – | IC50 (human FXR LBD [2]; read-out: half-maximal inhibitor concentration IC50 in the cell-free ligand sensing assay, in the presence of 50 μM CDCA): > 1000 µM |
